Measurements published in patent US20240415914A1, “Water Dispersible Cannabinoid Compositions” (priority 2021, published 2024).
Like-named read-outs stand apart in the source and are kept apart here.

Legend:
[1] = type: physicochemical; details: stored at room temperature (21-25° C.)
Procedure: At each time period, 0.05 g of powder was dissolved in 10 ml-15 of ethanol, diluted to fall within the analytical range, and injected into the LCMSMS for analysis.

[2] = Stability of cannabinoid and Vitamin E components of Beverage 2 (AB Red) stored at 8° C. and 21-25° C., LCMSMS over 570 days
Procedure: The LCMSMS was calibrated for 0-50 ng/ml cannabinoids with the same resin material used in the preparation of the concentrates. At each time period, 100 μml of beverage was diluted with 10 ml of methanol and injected into the LCMSMS for analysis.

## CCCc1cc(O)c2c(c1)OC(C)(C)[C@@H]1CCC(C)=C[C@@H]21 [THCV, delta-9-tetrahydrocannabivarin]
[1]; day 0
  Stability in Powder Concentrate (content by LCMSMS): 0.680 mg/g powder
[1]; day 1
  Stability in Powder Concentrate (content by LCMSMS): 0.685 mg/g powder
[1]; day 2
  Stability in Powder Concentrate (content by LCMSMS): 0.699 mg/g powder
[1]; day 3
  Stability in Powder Concentrate (content by LCMSMS): 0.698 mg/g powder
[1]; day 5
  Stability in Powder Concentrate (content by LCMSMS): 0.676 mg/g powder
[1]; day 8
  Stability in Powder Concentrate (content by LCMSMS): 0.685 mg/g powder
[1]; day 9
  Stability in Powder Concentrate (content by LCMSMS): 0.693 mg/g powder
[1]; day 10
  Stability in Powder Concentrate (content by LCMSMS): 0.706 mg/g powder
[1]; day 11
  Stability in Powder Concentrate (content by LCMSMS): 0.708 mg/g powder
[1]; day 12
  Stability in Powder Concentrate (content by LCMSMS): 0.698 mg/g powder
[1]; day 15
  Stability in Powder Concentrate (content by LCMSMS): 0.684 mg/g powder
[1]; day 16
  Stability in Powder Concentrate (content by LCMSMS): 0.658 mg/g powder
[1]; day 17
  Stability in Powder Concentrate (content by LCMSMS): 0.681 mg/g powder
[1]; day 18
  Stability in Powder Concentrate (content by LCMSMS): 0.690 mg/g powder
[1]; day 19
  Stability in Powder Concentrate (content by LCMSMS): 0.705 mg/g powder
[1]; day 22
  Stability in Powder Concentrate (content by LCMSMS): 0.703 mg/g powder
[1]; day 23
  Stability in Powder Concentrate (content by LCMSMS): 0.687 mg/g powder
[1]; day 24
  Stability in Powder Concentrate (content by LCMSMS): 0.668 mg/g powder
[1]; day 25
  Stability in Powder Concentrate (content by LCMSMS): 0.689 mg/g powder
[1]; day 26
  Stability in Powder Concentrate (content by LCMSMS): 0.686 mg/g powder
[1]; day 29
  Stability in Powder Concentrate (content by LCMSMS): 0.706 mg/g powder
[1]; day 30
  Stability in Powder Concentrate (content by LCMSMS): 0.659 mg/g powder
[1]; day 60
  Stability in Powder Concentrate (content by LCMSMS): 0.702 mg/g powder
[1]; day 90
  Stability in Powder Concentrate (content by LCMSMS): 0.707 mg/g powder
[1]; day 120
  Stability in Powder Concentrate (content by LCMSMS): 0.658 mg/g powder
[1]; day 150
  Stability in Powder Concentrate (content by LCMSMS): 0.695 mg/g powder
[1]; day 180
  Stability in Powder Concentrate (content by LCMSMS): 0.685 mg/g powder
[1]; day 210
  Stability in Powder Concentrate (content by LCMSMS): 0.662 mg/g powder
[1]; day 240
  Stability in Powder Concentrate (content by LCMSMS): 0.700 mg/g powder
[1]; day 270
  Stability in Powder Concentrate (content by LCMSMS): 0.670 mg/g powder
[1]; day 300
  Stability in Powder Concentrate (content by LCMSMS): 0.685 mg/g powder
[1]; day 330
  Stability in Powder Concentrate (content by LCMSMS): 0.691 mg/g powder
[1]; day 360
  Stability in Powder Concentrate (content by LCMSMS): 0.668 mg/g powder
[1]; day 390
  Stability in Powder Concentrate (content by LCMSMS): 0.680 mg/g powder
[1]; day 420
  Stability in Powder Concentrate (content by LCMSMS): 0.671 mg/g powder
[1]; day 450
  Stability in Powder Concentrate (content by LCMSMS): 0.680 mg/g powder
[1]; day 480
  Stability in Powder Concentrate (content by LCMSMS): 0.695 mg/g powder
[1]; day 510
  Stability in Powder Concentrate (content by LCMSMS): 0.696 mg/g powder
[1]; day 540
  Stability in Powder Concentrate (content by LCMSMS): 0.664 mg/g powder
[1]; day 570
  Stability in Powder Concentrate (content by LCMSMS): 0.686 mg/g powder
[2]; 8° C., 0 days
  Stability of Cannabinoids in AB Red: 3.22 µg/mL
[2]; 8° C., 1 days
  Stability of Cannabinoids in AB Red: 3.19 µg/mL
[2]; 8° C., 2 days
  Stability of Cannabinoids in AB Red: 3.17 µg/mL
[2]; 8° C., 3 days
  Stability of Cannabinoids in AB Red: 3.20 µg/mL
[2]; 8° C., 5 days
  Stability of Cannabinoids in AB Red: 3.24 µg/mL
[2]; 8° C., 8 days
  Stability of Cannabinoids in AB Red: 3.17 µg/mL
[2]; 8° C., 9 days
  Stability of Cannabinoids in AB Red: 3.14 µg/mL
[2]; 8° C., 10 days
  Stability of Cannabinoids in AB Red: 3.14 µg/mL
[2]; 8° C., 11 days
  Stability of Cannabinoids in AB Red: 3.24 µg/mL
[2]; 8° C., 12 days
  Stability of Cannabinoids in AB Red: 3.25 µg/mL
[2]; 8° C., 15 days
  Stability of Cannabinoids in AB Red: 3.19 µg/mL
[2]; 8° C., 16 days
  Stability of Cannabinoids in AB Red: 3.25 µg/mL
[2]; 8° C., 17 days
  Stability of Cannabinoids in AB Red: 3.12 µg/mL
[2]; 8° C., 18 days
  Stability of Cannabinoids in AB Red: 3.17 µg/mL
[2]; 8° C., 19 days
  Stability of Cannabinoids in AB Red: 3.19 µg/mL
[2]; 8° C., 22 days
  Stability of Cannabinoids in AB Red: 3.22 µg/mL
[2]; 8° C., 23 days
  Stability of Cannabinoids in AB Red: 3.25 µg/mL
[2]; 8° C., 24 days
  Stability of Cannabinoids in AB Red: 3.15 µg/mL
[2]; 8° C., 25 days
  Stability of Cannabinoids in AB Red: 3.25 µg/mL
[2]; 8° C., 26 days
  Stability of Cannabinoids in AB Red: 3.13 µg/mL
[2]; 8° C., 29 days
  Stability of Cannabinoids in AB Red: 3.22 µg/mL
[2]; 8° C., 30 days
  Stability of Cannabinoids in AB Red: 3.20 µg/mL
[2]; 8° C., 60 days
  Stability of Cannabinoids in AB Red: 3.11 µg/mL
[2]; 8° C., 90 days
  Stability of Cannabinoids in AB Red: 3.10 µg/mL
[2]; 8° C., 120 days
  Stability of Cannabinoids in AB Red: 3.10 µg/mL
[2]; 8° C., 150 days
  Stability of Cannabinoids in AB Red: 3.15 µg/mL
[2]; 8° C., 180 days
  Stability of Cannabinoids in AB Red: 3.10 µg/mL
[2]; 8° C., 210 days
  Stability of Cannabinoids in AB Red: 3.15 µg/mL
[2]; 8° C., 240 days
  Stability of Cannabinoids in AB Red: 3.08 µg/mL
[2]; 8° C., 270 days
  Stability of Cannabinoids in AB Red: 3.15 µg/mL
[2]; 8° C., 300 days
  Stability of Cannabinoids in AB Red: 3.15 µg/mL
[2]; 8° C., 330 days
  Stability of Cannabinoids in AB Red: 3.15 µg/mL
[2]; 8° C., 390 days
  Stability of Cannabinoids in AB Red: 3.08 µg/mL
[2]; 8° C., 420 days
  Stability of Cannabinoids in AB Red: 3.13 µg/mL
[2]; 8° C., 450 days
  Stability of Cannabinoids in AB Red: 3.08 µg/mL
[2]; 8° C., 480 days
  Stability of Cannabinoids in AB Red: 3.05 µg/mL
[2]; 8° C., 510 days
  Stability of Cannabinoids in AB Red: 2.95 µg/mL
[2]; 8° C., 540 days
  Stability of Cannabinoids in AB Red: 2.99 µg/mL
[2]; 8° C., 570 days
  Stability of Cannabinoids in AB Red: 2.95 µg/mL
[2]; 21-25° C., 0 days
  Stability of Cannabinoids in AB Red: 3.22 µg/mL
[2]; 21-25° C., 1 days
  Stability of Cannabinoids in AB Red: 3.13 µg/mL
[2]; 21-25° C., 2 days
  Stability of Cannabinoids in AB Red: 3.20 µg/mL
[2]; 21-25° C., 3 days
  Stability of Cannabinoids in AB Red: 3.25 µg/mL
[2]; 21-25° C., 5 days
  Stability of Cannabinoids in AB Red: 3.25 µg/mL
[2]; 21-25° C., 8 days
  Stability of Cannabinoids in AB Red: 3.19 µg/mL
[2]; 21-25° C., 9 days
  Stability of Cannabinoids in AB Red: 3.17 µg/mL
[2]; 21-25° C., 10 days
  Stability of Cannabinoids in AB Red: 3.09 µg/mL
[2]; 21-25° C., 11 days
  Stability of Cannabinoids in AB Red: 3.24 µg/mL
[2]; 21-25° C., 12 days
  Stability of Cannabinoids in AB Red: 3.24 µg/mL
[2]; 21-25° C., 15 days
  Stability of Cannabinoids in AB Red: 3.20 µg/mL
[2]; 21-25° C., 16 days
  Stability of Cannabinoids in AB Red: 3.20 µg/mL
[2]; 21-25° C., 17 days
  Stability of Cannabinoids in AB Red: 3.11 µg/mL
[2]; 21-25° C., 18 days
  Stability of Cannabinoids in AB Red: 3.19 µg/mL
[2]; 21-25° C., 19 days
  Stability of Cannabinoids in AB Red: 3.19 µg/mL
[2]; 21-25° C., 22 days
  Stability of Cannabinoids in AB Red: 3.18 µg/mL
[2]; 21-25° C., 23 days
  Stability of Cannabinoids in AB Red: 3.23 µg/mL
[2]; 21-25° C., 24 days
  Stability of Cannabinoids in AB Red: 3.25 µg/mL
[2]; 21-25° C., 25 days
  Stability of Cannabinoids in AB Red: 3.24 µg/mL
[2]; 21-25° C., 26 days
  Stability of Cannabinoids in AB Red: 3.11 µg/mL
[2]; 21-25° C., 29 days
  Stability of Cannabinoids in AB Red: 3.15 µg/mL
[2]; 21-25° C., 30 days
  Stability of Cannabinoids in AB Red: 3.15 µg/mL
[2]; 21-25° C., 60 days
  Stability of Cannabinoids in AB Red: 3.18 µg/mL
[2]; 21-25° C., 90 days
  Stability of Cannabinoids in AB Red: 3.05 µg/mL
[2]; 21-25° C., 120 days
  Stability of Cannabinoids in AB Red: 3.09 µg/mL
[2]; 21-25° C., 150 days
  Stability of Cannabinoids in AB Red: 3.17 µg/mL
[2]; 21-25° C., 180 days
  Stability of Cannabinoids in AB Red: 3.10 µg/mL
[2]; 21-25° C., 210 days
  Stability of Cannabinoids in AB Red: 3.03 µg/mL
[2]; 21-25° C., 240 days
  Stability of Cannabinoids in AB Red: 3.18 µg/mL
[2]; 21-25° C., 270 days
  Stability of Cannabinoids in AB Red: 3.04 µg/mL
[2]; 21-25° C., 300 days
  Stability of Cannabinoids in AB Red: 3.14 µg/mL
[2]; 21-25° C., 330 days
  Stability of Cannabinoids in AB Red: 3.19 µg/mL
[2]; 21-25° C., 390 days
  Stability of Cannabinoids in AB Red: 3.04 µg/mL
[2]; 21-25° C., 420 days
  Stability of Cannabinoids in AB Red: 3.10 µg/mL
[2]; 21-25° C., 450 days
  Stability of Cannabinoids in AB Red: 3.14 µg/mL
[2]; 21-25° C., 480 days
  Stability of Cannabinoids in AB Red: 3.04 µg/mL
[2]; 21-25° C., 510 days
  Stability of Cannabinoids in AB Red: 3.01 µg/mL
[2]; 21-25° C., 540 days
  Stability of Cannabinoids in AB Red: 2.95 µg/mL
[2]; 21-25° C., 570 days
  Stability of Cannabinoids in AB Red: 2.98 µg/mL
